The text below walks through data of publication PMC8036666, “Biological and Physico-Chemical Characteristics of Arginine-Rich Peptide Gemini Surfactants with Lysine and Cystine Spacers” (International Journal of Molecular Sciences, 2021).

For orientation: share remaining means the share of the starting amount still present when the sample was taken. Read a high share remaining as less turnover.

A short description of this data set: in vitro. As to conditions: human, 25% (v/v) normal human serum. As for the experimental part:
Serum stability of peptides B7 and C7 was tested in normal human serum (Sigma-Aldrich, Steinheim, Germany) according to the modified Jenssen and Aspmo protocol. Briefly, compounds were incubated in 25% (v/v) human serum solution in RPMI-1640 (Sigma-Aldrich, Steinheim, Germany) at 37 ± 0.1 °C. The final compound concentration was 50 µg/mL. Time intervals were 0, 1, 2, 3, 4, and 5 h. To precipitate serum proteins, 100 µL of solution was added to 200 µL of 96% ethanol (Pure P.A., POCH, Avantor Performance Materials S.A, Gliwice, Poland) and incubated at 4 °C before centrifugation (4 °C, 18,000× g, 2 min; Sorvall ST 16R Centrifuge, Thermo Scientific, Osterode am Harz, Germany). Subsequently, 200 µL of supernatant was transferred to glass vials (1.5 mL, Anchem, Poland), and the liquid was evaporated under nitrogen at 37 °C (approximately 30 min). The vials were lyophilized for 24 h to remove traces of solvents.
The influence of serum matrix on calibration curves was eliminated by the preparation of a series of vials with residual substances from serum. Briefly, ethanol was added to serum solution to precipitate proteins. Subsequently, the precipitate was centrifuged, and the supernatant was collected and evaporated to dryness as described above. Standards of the analyzed compounds were prepared in demineralized water in concentration ranging from 1 to 15 ppm. Next, 333 µL of solutions were moved to vials containing residual matrix substances (blank, without surfactant). Similarly, samples obtained after serum stability experiments were dissolved in 333 µL of demineralized water and analyzed. Analyses were performed using UPLC-HRMS. The mobile phase contained deionized water (solvent A) and acetonitrile (solvent B; ACN for HPLC-gradient grade; POCH, Avantor, Gliwice, Poland) both supplemented with a 0.1% (v/v) formic acid (Sigma-Aldrich, Steinheim, Germany).
The quantification of lipopeptides was performed using an Agilent 1290 Infinity chromatograph and Agilent 6550 Quadrupole Time-of-flight (Q-TOF) high-resolution mass spectrometer (HRMS). Gradient LC analyses were conducted using a ZORBAX Eclipse Plus C18 column (Rapid Resolution HD, 2.1 × 50 mm, 1.8 µm) and mobile phases: A—water containing 0.3% of acetonitrile and B—acetonitrile, both with 0.1% (v/v) formic acid. […] The mass detector equipped with an ESI source in HRMS mode was set in scanning mode 100–1700 m/z range in positive ionization. Chromatograms for a desired m/z value were extracted, and calibration curves were prepared using Mass Hunter software. All standards and serum samples were subjected to LC-MS analysis, and all analyses were performed in triplicate. Calibration curves were prepared for chromatograms extracted for m/z values corresponding to mono-, di-, tri- and tetra-charged ions. For analysis of peptide C7, a pseudomolecular ion [M+H]^+ (m/z 1227.8017) was selected, while for the other peptide B7, triple charged ion [M+3H]^3+ (m/z 378.9606).

Compound `CCCCCCC(CCCC)C(=O)N[C@@H](CCCNC(=N)N)C(=O)N[C@@H](CCCNC(=N)N)C(=O)NCCCC[C@H](NC(=O)[C@H](CCCNC(=N)N)NC(=O)[C@H](CCCNC(=N)N)NC(=O)C(CCCC)CCCCCC)C(N)=O` (stereo partly drawn) [Compound B7] displayed an amount remaining at 0 h, 50 µg/mL of 100 ± 2.4%; an amount remaining at 1 h, 50 µg/mL of 94.3 ± 1.8%; a share remaining at 2 h, 50 µg/mL of 87.3 ± 1.7%; a share remaining at 3 h, 50 µg/mL of 83.1 ± 1.6%. Besides, the fraction remaining at 4 h, 50 µg/mL was found to be 80.1 ± 1.2% and the share remaining at 5 h, 50 µg/mL was 63.2 ± 2.9%.
On to `CCCCCCC(CCCC)C(=O)N[C@@H](CCCNC(=N)N)C(=O)N[C@@H](CCCNC(=N)N)C(=O)N[C@@H](CSSC[C@H](NC(=O)[C@H](CCCNC(=N)N)NC(=O)[C@H](CCCNC(=N)N)NC(=O)C(CCCC)CCCCCC)C(N)=O)C(N)=O` (stereo partly drawn) [Compound C7], for which the amount remaining at 0 h, 50 µg/mL came to 100 ± 1.1%; the amount remaining at 1 h, 50 µg/mL came out at 92.2 ± 2.1%; the amount remaining at 2 h, 50 µg/mL stood at 82.5 ± 1.3%; the share remaining at 3 h, 50 µg/mL is 79.2 ± 1.6%. The same compound displayed a fraction remaining at 4 h, 50 µg/mL of 72.8 ± 3% and a share remaining at 5 h, 50 µg/mL of 59.4 ± 1%.
